Measured values: patent US8669291B2, “Phenyl substituted cycloalkylamines as monoamine reuptake inhibitors” (Sunovion Pharmaceuticals Inc., priority 2007, dated 2014)
Where two headings read alike, the source gives them in different places.

How the values were obtained:
[1] = in vivo; cited from earlier work
serotonin uptake sites = serotonin uptake sites (Homo sapiens, UniProt P31645); conditions: cited from earlier work
[2] = biological target: T1, human norepinephrine (NE) reuptake transporter (Homo sapiens, UniProt P23975); test: functional uptake assay, human NE reuptake transporter; type: cell-based; conditions: read-out: NE IC50
T1 construct: expressed in transfected cells
T1 sequence (P23975 whole entry): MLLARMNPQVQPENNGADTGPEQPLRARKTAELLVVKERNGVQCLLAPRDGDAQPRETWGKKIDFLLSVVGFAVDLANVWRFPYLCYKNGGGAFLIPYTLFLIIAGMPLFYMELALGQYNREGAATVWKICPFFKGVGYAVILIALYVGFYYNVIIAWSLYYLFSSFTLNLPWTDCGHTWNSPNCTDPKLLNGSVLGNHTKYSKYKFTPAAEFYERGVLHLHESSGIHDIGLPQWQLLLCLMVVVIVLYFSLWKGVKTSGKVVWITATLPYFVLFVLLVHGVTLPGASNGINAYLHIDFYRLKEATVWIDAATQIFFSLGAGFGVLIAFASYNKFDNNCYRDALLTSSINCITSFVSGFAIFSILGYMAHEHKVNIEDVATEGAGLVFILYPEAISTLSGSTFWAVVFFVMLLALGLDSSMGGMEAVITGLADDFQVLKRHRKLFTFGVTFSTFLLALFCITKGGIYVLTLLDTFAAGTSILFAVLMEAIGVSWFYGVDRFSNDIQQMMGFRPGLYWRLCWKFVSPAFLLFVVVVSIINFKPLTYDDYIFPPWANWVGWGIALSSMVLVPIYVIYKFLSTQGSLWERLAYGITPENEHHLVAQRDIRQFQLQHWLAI
Experimental: (§1) Compounds were tested for their inhibition of functional uptake of serotonin (5-HT), norepinephrine (NE), and dopamine (DA), in synaptosomes prepared from rat whole brain, hypothalamus, or corpus striatum, respectively, and/or using recombinant human transporters.

[3] = biological target: T2, human serotonin (5-HT) reuptake transporter (Homo sapiens, UniProt P31645); test: functional uptake assay, human 5-HT reuptake transporter; type: cell-based
T2 construct: expressed in transfected cells
T2 sequence (P31645 whole entry): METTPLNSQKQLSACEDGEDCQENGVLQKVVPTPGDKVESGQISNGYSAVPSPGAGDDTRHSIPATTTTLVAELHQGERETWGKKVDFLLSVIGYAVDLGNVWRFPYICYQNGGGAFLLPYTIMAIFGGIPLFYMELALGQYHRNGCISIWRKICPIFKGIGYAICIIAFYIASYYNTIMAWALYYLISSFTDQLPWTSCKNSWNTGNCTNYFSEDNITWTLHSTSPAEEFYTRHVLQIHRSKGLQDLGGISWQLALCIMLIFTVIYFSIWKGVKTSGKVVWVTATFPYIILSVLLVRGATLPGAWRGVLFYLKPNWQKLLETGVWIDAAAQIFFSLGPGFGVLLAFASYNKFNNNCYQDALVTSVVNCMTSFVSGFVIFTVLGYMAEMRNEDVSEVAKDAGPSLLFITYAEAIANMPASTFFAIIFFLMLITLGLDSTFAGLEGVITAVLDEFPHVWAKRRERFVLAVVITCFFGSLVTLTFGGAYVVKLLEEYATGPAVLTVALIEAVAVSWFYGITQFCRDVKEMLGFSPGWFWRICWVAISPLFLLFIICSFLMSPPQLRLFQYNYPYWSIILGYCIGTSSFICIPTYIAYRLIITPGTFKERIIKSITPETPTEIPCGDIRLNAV
Experimental: as §1

[4] = biological target: T3, human dopamine (DA) reuptake transporter (Homo sapiens, UniProt Q01959); test: functional uptake assay, human DA reuptake transporter; type: cell-based
T3 construct: expressed in transfected cells
T3 sequence (Q01959 whole entry): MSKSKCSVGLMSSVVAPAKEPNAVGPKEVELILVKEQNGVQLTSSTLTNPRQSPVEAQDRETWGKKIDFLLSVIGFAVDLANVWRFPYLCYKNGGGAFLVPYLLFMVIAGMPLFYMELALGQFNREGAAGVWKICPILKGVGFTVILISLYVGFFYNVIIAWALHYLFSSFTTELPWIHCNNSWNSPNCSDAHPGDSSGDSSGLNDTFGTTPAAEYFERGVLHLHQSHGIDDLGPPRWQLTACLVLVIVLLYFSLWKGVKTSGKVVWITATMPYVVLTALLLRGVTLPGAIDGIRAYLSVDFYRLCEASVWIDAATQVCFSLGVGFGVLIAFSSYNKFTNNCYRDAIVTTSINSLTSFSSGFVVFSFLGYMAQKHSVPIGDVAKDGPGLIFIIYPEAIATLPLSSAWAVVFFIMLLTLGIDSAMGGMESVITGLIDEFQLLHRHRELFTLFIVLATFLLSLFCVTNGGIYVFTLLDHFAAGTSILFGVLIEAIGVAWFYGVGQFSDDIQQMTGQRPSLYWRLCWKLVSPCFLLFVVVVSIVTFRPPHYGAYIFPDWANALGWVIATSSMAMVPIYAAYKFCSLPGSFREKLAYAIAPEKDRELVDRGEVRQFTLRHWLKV
Experimental: as §1

[5] = human metabolic stability (HLM t1/2); type: in vitro ADME; conditions: human liver microsomes
From the text: 4b. In Vitro PK Data (Human Metabolic Stability, Inhibition of CYP450 Enzymes, Inhibition of HERG Current)

[6] = Example 6 summary of selected in vitro data
[7] = Example 6 summary of selected in vitro data, read-out: 5-HT IC50
[8] = Example 6 summary of selected in vitro data, read-out: DA IC50
[9] = Example 4a, human reuptake transporter
[10] = Example 4a, human reuptake transporter, read-out: 5-HT IC50
[11] = Example 4a, human reuptake transporter, read-out: DA IC50

Sequence of serotonin uptake sites (P31645 whole entry): as the sequence (P31645 whole entry) above

Clc1ccc([C@@]23CNC[C@@H]2C3)cc1Cl (single isomer, unassigned) [DOV 21,947, (+)-1-(3,4-dichlorophenyl)-3-azabicyclo[3.1.0]hexane]
immobility in the tail suspension test [1]: dose-dependent reduction in immobility
affinity for the serotonin uptake sites versus the racemic compound (serotonin uptake sites): significantly greater affinity

CN(C)C[C@]1(F)CCCC[C@@]1(O)c1ccc(Cl)c(Cl)c1 [Compound 23 A/B]
IC50 [2, 6]: > 5000 nM
IC50 [3, 7]: 2000 to 7000 nM
IC50 [4, 8]: 201 to 1000 nM

NCC1CCCCC1(O)c1ccc(Cl)c(Cl)c1 (single isomer, unassigned) [Compound 8, cis-2-(aminomethyl)-1-(3,4-dichlorophenyl)cyclohexanol]
IC50 [2, 9]: > 5000 nM
IC50 [2, 6]: > 5000 nM
IC50 [3, 10]: 7000 to 10000 nM
IC50 [3, 7]: 7000 to 10000 nM
IC50 [4, 11]: 201 to 1000 nM
IC50 [4, 8]: 201 to 1000 nM

NC[C@]1(F)CCCC[C@@]1(O)c1ccc(Cl)c(Cl)c1 [Compound 21 A/B]
IC50 [2, 6]: > 5000 nM
IC50 ([3]; read-out: 5-HT IC50 nM, Example 6 summary of selected in vitro data): 1 to 2000 nM
IC50 ([4]; read-out: DA IC50 nM, Example 6 summary of selected in vitro data): 10 to 200 nM

C[C@@]1(CN)CCCC[C@@]1(O)c1ccc(Cl)c(Cl)c1 [Compound 15 A/B]
IC50 [2, 6]: > 5000 nM
IC50 [3, 7]: 2000 to 7000 nM
IC50 [4, 8]: 201 to 1000 nM

CN(C)C[C@]1(C)CCCC[C@@]1(O)c1ccc(Cl)c(Cl)c1 [Compound 17 A/B]
IC50 [2, 6]: > 5000 nM
IC50 [3, 7]: 2000 to 7000 nM
IC50 [4, 8]: 201 to 1000 nM

CN(C)C[C@H]1CCCC[C@]1(O)c1ccc(Cl)c(Cl)c1 (single isomer, unassigned) [Compound 1, cis-1-(3,4-dichlorophenyl)-2-((dimethylamino)methyl)cyclohexanol]
IC50 [2, 9]: 201 to 1000 nM
IC50 [2, 6]: 201 to 1000 nM
IC50 [3, 10]: 1 to 2000 nM
IC50 [3, 7]: 1 to 2000 nM
half-life [5]: 0.417 to 2.92 h
IC50 [4, 11]: 201 to 1000 nM
IC50 [4, 8]: 201 to 1000 nM

NC[C@@H]1CCCC[C@@]1(O)c1ccc(Cl)c(Cl)c1 (relative stereo) [Compound 9, cis-2-(aminomethyl)-1-(3,4-dichlorophenyl)cyclohexanol]
IC50 [2, 9]: 1000 to 5000 nM
IC50 [2, 6]: 1000 to 5000 nM
IC50 [3, 10]: > 10000 nM
IC50 [3, 7]: > 10000 nM
IC50 [4, 11]: 10 to 200 nM
IC50 [4, 8]: 10 to 200 nM

CNC[C@]1(C)CCCC[C@@]1(O)c1ccc(Cl)c(Cl)c1 [Compound 16 A/B]
IC50 [2, 6]: > 5000 nM
IC50 [3, 7]: 1 to 2000 nM
IC50 [4, 8]: 10 to 200 nM
